Earlier results on 3 compounds are cited in patent publication US20190219580A1, “METHODS OF DRUG THERAPY SELECTION FOR BREAST CANCER PATIENTS BASED ON HER2 AND HER3 PATHWAY SUBTYPING” (Nestec S.A., priority 2016, published 2019).

Structures are written as SMILES. Where two headings read alike, the source gives them in different places.

For one data set, the system named is breast cancer. The settings on record: monotherapy.
Data set [1] relates to tumor xenografts which overexpress HER2. The settings on record: in vivo.
The test system of data set [2] is HER2-positive, locally advanced disease without previous treatment.
Data set [3] deals with HER2-positive metastatic and locally advanced breast cancer. The settings on record: first-line therapy.
Data set [4] deals with HER2-positive breast cancer.
The test system of data set [5] is progressive, locally advanced, or metastatic HER2-positive breast cancer. The settings on record: human, in vivo.
Setting [6] is: trastuzumab-refractory patients.

As for `CCOc1cc2ncc(C#N)c(Nc3ccc(OCc4ccccn4)c(Cl)c3)c2cc1NC(=O)/C=C/CN(C)C` [neratinib], the response rate with breast cancer (trastuzumab-naive patients) was 56%; in the data set on breast cancer (setting [6]), 26%. The tumor growth entry in data set [1] is “repress tumor growth in a dose-dependent manner”. Also, the “phosphorylation of MAPK and AKT signal transduction pathways” value in the data set with BT474 cell lines is “effectively repressed”.
In the case of `CS(=O)(=O)CCNCc1ccc(-c2ccc3ncnc(Nc4ccc(OCc5cccc(F)c5)c(Cl)c4)c3c2)o1` [lapatinib], the pCR rate in data set [2] (patients with low PTEN expression and PI3 kinase mutation) is given as 87%; in data set [2] (single agent first, followed by trastuzumab/docetaxel ×4 cycles), 68%. Besides, the response rate in the data set on breast cancer (trastuzumab-naive patients) was 24%; with breast cancer (setting [6]) it was 5.1%. The overall response rate in data set [3] is 24%. For the same compound, in data set [4] (with EC-DOC), the “toxicity in the run-in phase” value is listed as “lowered due to toxicity”. In data set [4] (with epirubicin, cyclophosphamide followed by docetaxel (EC-DOC), n=620), the “pCR rate (no invasive disease in breast)” value is reported as 35%.
For `CCCCCOC(=O)Nc1nc(=O)n([C@@H]2O[C@H](C)[C@@H](O)[C@H]2O)cc1F` [capecitabine], in data set [5], the “median TTP” value is on record as 4.4 months.
